For test [1], the target named is T1, rat adrenergic α1B receptor (Rattus norvegicus, UniProt P15823).
T1 construct: rat adrenergic α1B receptor obtained from Wistar Rat liver; from tissue; host or cells: Wistar rat liver
T1 sequence (P15823 1-515): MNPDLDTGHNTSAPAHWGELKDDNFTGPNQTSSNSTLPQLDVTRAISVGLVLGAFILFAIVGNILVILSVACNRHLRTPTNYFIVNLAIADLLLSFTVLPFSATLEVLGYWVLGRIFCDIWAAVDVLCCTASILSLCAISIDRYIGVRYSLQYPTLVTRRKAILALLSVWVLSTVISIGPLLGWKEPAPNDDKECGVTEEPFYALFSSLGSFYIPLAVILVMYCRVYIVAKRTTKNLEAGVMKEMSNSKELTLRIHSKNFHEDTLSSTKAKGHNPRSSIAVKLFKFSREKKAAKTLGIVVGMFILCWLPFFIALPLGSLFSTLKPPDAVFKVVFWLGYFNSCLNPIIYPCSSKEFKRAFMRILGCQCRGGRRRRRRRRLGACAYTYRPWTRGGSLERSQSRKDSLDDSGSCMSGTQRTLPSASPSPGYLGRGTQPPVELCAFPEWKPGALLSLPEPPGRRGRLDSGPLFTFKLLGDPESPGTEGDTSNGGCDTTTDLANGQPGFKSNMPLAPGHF
Briefly: Radioligand binding, adrenergic α1B ([3H]Prazosin). The note with it: for Percentage inhibition of ligand binding, Adrenergic α1B: 0.1 µM. In outline:
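Rat α1B receptor from Wistar rat liver was incubated with 0.25 nM [3H]prazosin for 60 min at 25 °C in 50 mM Tris-HCl, pH 7.4, 0.5 mM EDTA. Non-specific binding was defined with 10 μM phentolamine. Bound radioligand was measured by filtration and counting, reported as percent inhibition of specific binding.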

Test [2] has as its target T2, human recombinant adrenergic α1D receptor (Homo sapiens, UniProt P25100).
T2 construct: expressed in transfected cells; host or cells: HEK-293
T2 sequence (P25100 1-572): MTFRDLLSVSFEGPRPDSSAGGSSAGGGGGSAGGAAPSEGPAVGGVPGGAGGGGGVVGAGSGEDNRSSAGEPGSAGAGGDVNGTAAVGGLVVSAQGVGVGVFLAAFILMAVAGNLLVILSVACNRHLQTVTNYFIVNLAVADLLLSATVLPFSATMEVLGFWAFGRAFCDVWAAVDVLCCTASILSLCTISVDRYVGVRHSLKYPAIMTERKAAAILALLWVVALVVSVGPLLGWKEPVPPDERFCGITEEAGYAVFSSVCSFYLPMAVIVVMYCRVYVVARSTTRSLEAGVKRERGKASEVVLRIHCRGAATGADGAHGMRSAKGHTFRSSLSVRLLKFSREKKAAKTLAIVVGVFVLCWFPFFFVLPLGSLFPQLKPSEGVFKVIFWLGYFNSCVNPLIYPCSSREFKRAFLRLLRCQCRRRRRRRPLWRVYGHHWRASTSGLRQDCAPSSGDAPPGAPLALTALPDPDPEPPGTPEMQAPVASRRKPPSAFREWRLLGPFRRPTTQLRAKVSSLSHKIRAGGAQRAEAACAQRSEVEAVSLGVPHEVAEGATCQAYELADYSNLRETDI
The test can be described thus: Radioligand binding, adrenergic α1D ([3H]Prazosin). To be noted: for Percentage inhibition of ligand binding, Adrenergic α1D: 0.1 µM. The method, then:
Compounds were incubated with 0.6 nM [3H]Prazosin for 60 min at 25° C. Non-specific binding was estimated in the presence of 10 μM phentolamine. Receptor proteins were filtered and washed, the filters were then counted to determine [3H]Prazosin specifically bound. […] Biochemical assay results are presented as the percent inhibition of specific binding in Table B1.

Test [3] has as its target T3, human recombinant adrenergic α2B receptor (Homo sapiens, UniProt P18089).
T3 construct: expressed in transfected cells; host or cells: CHO-K1
T3 sequence (P18089 1-450): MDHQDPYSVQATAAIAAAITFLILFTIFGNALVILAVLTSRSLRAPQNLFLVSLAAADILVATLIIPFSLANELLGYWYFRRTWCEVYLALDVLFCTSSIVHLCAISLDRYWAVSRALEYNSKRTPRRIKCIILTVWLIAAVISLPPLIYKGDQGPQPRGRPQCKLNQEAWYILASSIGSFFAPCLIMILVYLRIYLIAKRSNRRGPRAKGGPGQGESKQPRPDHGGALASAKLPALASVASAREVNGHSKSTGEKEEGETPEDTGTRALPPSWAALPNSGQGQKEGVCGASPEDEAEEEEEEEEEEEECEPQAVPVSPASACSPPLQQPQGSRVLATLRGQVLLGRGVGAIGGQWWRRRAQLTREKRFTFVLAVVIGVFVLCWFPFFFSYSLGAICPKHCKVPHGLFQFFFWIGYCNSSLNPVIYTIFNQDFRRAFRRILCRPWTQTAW
The test can be described thus: Radioligand binding, adrenergic α2B ([3H]Rauwolscine). To be noted: for Percentage inhibition of ligand binding, Adrenergic α2B: 0.1 µM. An outline of the steps:
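Values are percent inhibition of specific radioligand binding. The receptor, expressed in CHO-K1 cells, was exposed to 2.5 nM [3H]Rauwolscine at 25° C for 60 min, with 10 μM Prazosin marking non-specific binding.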

For test [4], the target named is T4, human recombinant adrenergic α2A receptor (Homo sapiens, UniProt P08913).
T4 construct: expressed in transfected cells; host or cells: insect Sf9 cells
T4 sequence (P08913 1-465): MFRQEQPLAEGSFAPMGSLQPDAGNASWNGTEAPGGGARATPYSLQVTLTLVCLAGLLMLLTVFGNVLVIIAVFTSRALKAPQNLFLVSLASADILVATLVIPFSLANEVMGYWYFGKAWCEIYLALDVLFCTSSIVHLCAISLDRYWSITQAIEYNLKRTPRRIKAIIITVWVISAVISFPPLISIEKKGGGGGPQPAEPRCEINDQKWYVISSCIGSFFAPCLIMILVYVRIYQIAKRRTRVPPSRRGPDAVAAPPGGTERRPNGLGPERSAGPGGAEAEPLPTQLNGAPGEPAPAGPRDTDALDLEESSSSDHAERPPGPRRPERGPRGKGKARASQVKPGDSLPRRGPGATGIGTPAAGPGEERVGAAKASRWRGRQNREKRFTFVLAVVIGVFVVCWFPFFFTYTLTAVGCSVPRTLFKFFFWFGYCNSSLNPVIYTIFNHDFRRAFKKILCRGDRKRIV
Briefly: Radioligand binding, adrenergic α2A ([3H]MK-912). The note with it: for Percentage inhibition of ligand binding, Adrenergic α2A: 0.1 µM. An outline of the steps:
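Displacement of 1 nM [3H]MK-912 from receptor produced in insect Sf9 cells was measured after 60 min at 25 °C. Readout: percent inhibition of specific binding.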

Where [5] appears, read: 0.1 μM compound, read-out: Percentage inhibition of ligand binding, Adrenergic α1B.
[6] abbreviates: 0.1 μM compound, read-out: Percentage inhibition of ligand binding, Adrenergic α1D.
[7] abbreviates: 0.1 μM compound, read-out: Percentage inhibition of ligand binding, Adrenergic α2B.
Where [8] appears, read: 0.1 μM compound, read-out: Percentage inhibition of ligand binding, Adrenergic α2A.
Where [9] appears, read: read-out: Percentage inhibition of ligand binding, Adrenergic α1B (0.1 μM), compound at 0.1 μM, [3H]Prazosin, repeat datapoints each shown.
Where [10] appears, read: read-out: Percentage inhibition of ligand binding, Adrenergic α1D (0.1 μM), compound at 0.1 μM, [3H]Prazosin, repeat datapoints each shown.
[11] abbreviates: read-out: Percentage inhibition of ligand binding, Adrenergic α2B (0.1 μM), compound at 0.1 μM, [3H]Rauwolscine, repeat datapoints each shown.
Setting [12] is: read-out: Percentage inhibition of ligand binding, Adrenergic α2A (0.1 μM), compound at 0.1 μM, [3H]MK-912, repeat datapoints each shown.

In general, inhibition refers to the drop in the measured response relative to a control, in per cent. One may read the Ki as a dissociation constant, usually derived from enzyme kinetics or from competition with a known ligand.

Values joined by “and” are separate entries in the source; they are usually repeats but may differ in a detail not shown here. Equal entries are not always repeated. Where two headings read alike, the source gives them in different places.

In the case of `C/C(=C/n1c2c(c3cc(C)ccc31)CN(C)CC2)c1cnc(N(C)C)nc1` [compound 279], the inhibition at 0.1 µM in test [1] (setting [5]) came out at 79%; in test [2] (setting [6]), 93%; in test [3] (setting [7]), 92%; in test [4] (setting [8]), 90%.

As to `CSc1cccc(/C(C)=C/n2c3c(c4cc(C)ccc42)CN(C)CC3)c1` [compound 268], the inhibition at 0.1 µM worked out at 57% in test [1] (setting [5]), 39% in test [2] (setting [6]), 94% in test [3] (setting [7]) and 90% in test [4] (setting [8]).

On to `C/C(=C/n1c2c(c3cc(C)ccc31)CCN(C)CC2)c1cccc(F)c1` [compound 249], for which the inhibition at 0.1 µM in test [1] (setting [5]) amounted to 95%; in test [2] (setting [6]) it was 82%; in test [3] (setting [7]), 98%; in test [4] (setting [8]) it was 98%.

For the compound `Cc1ccc2c(c1)c1c(n2C#Cc2ccc(S(N)(=O)=O)cc2)CN(C)CC1` [compound 333, 4-(2,6-dimethyl-1,2,3,4-tetrahydro-β-carbolin-9-ylethynyl)-benzenesulfonamide], the inhibition at 0.1 µM stood at 65% in test [1] (setting [5]), 16% in test [2] (setting [6]), 88% in test [3] (setting [7]) and 52% in test [4] (setting [8]).

With `Cc1cnc2c(c1)c1c(n2CCc2ccc(C(F)(F)F)nc2)CCN(C)C1` [II-119, 3,6-dimethyl-9-(2-(6-(trifluoromethyl)pyridin-3-yl)ethyl)-6,7,8,9-tetrahydro-5H-pyrrolo[2,3-b:4,5-c′]dipyridine], the inhibition at 0.1 µM in test [1] (setting [9]) was 23%; in test [2] (setting [10]), 53%; in test [3] (setting [11]), 27%; in test [4] (setting [12]), -4%.

For `C/C(=C/n1c2c(c3cc(C)ccc31)CN(C)CC2)c1ccc2ccccc2c1` [compound 271], the inhibition at 0.1 µM is 65% in test [1] (setting [5]), 83% in test [2] (setting [6]), 71% in test [3] (setting [7]) and 97% in test [4] (setting [8]).

For the compound `COc1ccc(C#Cn2c3c(c4cc(Cl)ccc42)CCN(C)CC3)cc1F` [compound 242], the inhibition at 0.1 µM is 53% in test [1] (setting [5]), 37% in test [2] (setting [6]), 98% in test [3] (setting [7]) and 50% in test [4] (setting [8]).

As to `COc1ccc(C(C)(O)Cn2c3c(c4cc(C)ccc42)CN(C)CC3)cc1` (stereo not shown) [254b], the “Percentage inhibition of ligand binding, Adrenergic α1B” value in test [1] (0.1 μM compound) was 63%. Besides, the “Percentage inhibition of ligand binding, Adrenergic α1D” value in test [2] (0.1 μM compound) was 22%. In addition, the “Percentage inhibition of ligand binding, Adrenergic α2B” value in test [3] (0.1 μM compound) is listed as 79%. Moreover, in test [4] (0.1 μM compound), the “Percentage inhibition of ligand binding, Adrenergic α2A” value (shortened to “Percentage inhibition … Adrenergic α2A”) came out at 57%.

Regarding `CCc1ccc(/C(C)=C/n2c3c(c4cc(C)ccc42)CN(C)CC3)cn1` [II-77], the inhibition at 0.1 µM in test [1] (setting [5]) amounted to 54%; in test [2] (setting [6]), 66%; in test [3] (setting [7]), 108%; in test [4] (setting [8]), 43%.

As to `CN1CCc2c(c3cccnc3n2CCc2ccc(C(F)(F)F)nc2)C1` [II-103, 6-methyl-9-(2-(6-(trifluoromethyl)pyridin-3-yl)ethyl)-6,7,8,9-tetrahydro-5H-pyrrolo[2,3-b:4,5-c′]dipyridine], the inhibition at 0.1 µM is 1% in test [1] (setting [5]), 8% in test [2] (setting [6]), 35% in test [3] (setting [7]) and -5% in test [4] (setting [8]).

With `CC(=O)Nc1ccc(/C(C)=C/n2c3c(c4cc(C)ccc42)CN(C)CC3)cn1` [compound 112], the inhibition at 0.1 µM in test [1] (setting [9]) was 44%; in test [2] (setting [10]), 40%; in test [3] (setting [11]), 79%; in test [4] (setting [12]), 26%.

As to `CN1CCc2c(c3cc(Cl)c(Cl)cc3n2CC(C)(O)c2ccncc2)C1` (stereo not shown) [compound 253], the “Percentage inhibition of ligand binding, Adrenergic α1B” value in test [1] (0.1 μM compound) is on record as 55%. The inhibition at 0.1 µM is 54% in test [1] (setting [5]), 18% in test [2] (setting [6]) and 44% in test [4] (setting [8]). Moreover, the “Percentage inhibition of ligand binding, Adrenergic α1D” value in test [2] (0.1 μM compound) is recorded as 24%. Besides, the “Percentage inhibition of ligand binding, Adrenergic α2B” value in test [3] (0.1 μM compound) was 64% and 86%. In test [4] (0.1 μM compound), the “Percentage inhibition … Adrenergic α2A” value turned out to be 64%.

Take `Cc1ccc2c(c1)c1c(n2C#Cc2ccncc2)CCN(C)C1` [compound 264]: the inhibition at 0.1 µM was 79% in test [1] (setting [5]), 46% in test [2] (setting [6]), 82% in test [3] (setting [7]) and 81% in test [4] (setting [8]).

As for `Cc1ccc(CCn2c3c(c4c(Cl)ccc(Cl)c42)CN(C)CC3)cn1` [compound 325], the inhibition at 0.1 µM in test [1] (setting [5]) was -1%; in test [2] (setting [6]) it was 1%; in test [3] (setting [7]), -6%; in test [4] (setting [8]), 81%. For the same compound, the inhibitory constant (Ki) in test [3] (read-out: Ki α2B) came out at 0.206 µM; in test [4], 0.00988 µM. Further, the inhibition at 0.03 µM in test [4] (0.03 μM compound, read-out: Percentage inhibition of ligand binding, Adrenergic α2A) stood at 53%. Also, the “Percentage inhibition … Adrenergic α2A” value in test [4] (0.1 μM compound) is listed as 84%.

`CN1CCc2c(c3cc(Cl)ccc3n2CC(C)(O)c2ccncc2)C1` (stereo not shown) [compound 1]: the inhibition at 0.1 µM in test [1] (compound at 0.1 μM, [3H]Prazosin, repeat assays, each datapoint shown, read-out: Percentage inhibition of ligand binding, Adrenergic α1B) came out at 32%; in test [2] (compound at 0.1 μM, [3H]Prazosin, repeat assays, each datapoint shown, read-out: Percentage inhibition of ligand binding, Adrenergic α1D), 16%; in test [3] (compound at 0.1 μM, [3H]Rauwolscine, repeat assays, each datapoint shown, read-out: Percentage inhibition of ligand binding, Adrenergic α2B), 74%; in test [4] (compound at 0.1 μM, [3H]MK-912, repeat assays, each datapoint shown, read-out: Percentage inhibition of ligand binding, Adrenergic α2A), 6%.
